Measured values as given in US20240252474A1, “METHODS AND COMPOSITIONS COMPRISING A CARDIO-TOLERATED HDAC INHIBITOR” (HUYABIO International, LLC, priority 2023, published 2024).

Test: Phase 1b safety and tolerability of HBI-8000 combined with nivolumab (DLTs, TEAEs)
Type: in vivo
Method: The present example, was a Phase Ib/2 open-label dose finding study for HBI-8000 (also referred to in the art as “chidamide” or “tucidinostat” and also referred to herein as a compound of formula I) in combination with nivolumab in patients with advanced solid tumors, including melanoma, RCC (renal cell carcinoma), and NSCLC (non-small cell lung cancer). This study was conducted in accordance with Good Clinical Practice guidelines and the Declaration of Helsinki and with assurance/approval from the US Department of Health and Human Services; the protocol was approved by the institutional review boards or ethics committees of all participating sites. All patients provided written informed consent to participate before enrollment. […]
HBI-8000 at three dose levels (20 mg, 30 mg, and 40 mg) given orally twice a week (BIW) were evaluated. Doses were taken approximate 30 minutes after a meal. The starting dose (20 mg) was selected based on pharmacokinetic profiles established for monotherapy in Japanese patients with T-cell lymphoma.
The decision to escalate the dose was based on the conventional 3+3 design and observed incidences of dose-limiting toxicities (DLTs). Each treatment cycle was defined as 28 days. […] Subjects experiencing DLT within the first two weeks after having received 100% of assigned dose of HBI-8000 are also evaluable for DLT. Unacceptable toxicities were defined as grade 3 or higher non-hematologic and hematologic toxicities with clinical complications. Unacceptable toxicities observed over the first 28 days following HBI-8000 administration were considered as DLTs. […] HBI-8000 administration continued until disease progression or unacceptable toxicity was observed. The efficacy of the combination was further evaluated in an expanded cohort of selected patient populations at RP2D based on an objective response rate according to Response Evaluation Criteria in Solid Tumors (RECIST) version 1.1 criteria, progression-free survival, and duration of responses.
Safety evaluations included physical examinations, vital signs, ECGs, ECOG performance status, and laboratory tests.
Statistical analyses of safety, tolerability, and anti-tumor activity were primarily descriptive in nature. Toxicities were tabulated by type and grade. The safety population included all patients who received ≥1 dose of HBI-8000 and nivolumab. Continuous variables were summarized using descriptive statistics and categorical variables were summarized with number and percentage at each category. Pharmacokinetic parameters were derived using noncompartmental methods with Phoenix® WinNonlin® Version 6.4 (Certara, L. P., Princeton, NJ, USA).

[1] = 20 mg HBI-8000 BIW + nivolumab, N = 3
[2] = 30 mg HBI-8000 BIW + nivolumab, N = 7
[3] = 40 mg HBI-8000 BIW + nivolumab, N = 7

For `Nc1cc(F)ccc1NC(=O)c1ccc(CNC(=O)/C=C/c2cccnc2)cc1` [HBI-8000, N-(2-amino-4-fluorophenyl)-4-[[[(2E)-1-oxo-3-(3-pyridinyl)-2-propen-1-yl]amino]methyl]benzamide], the “Alanine aminotransferase increased, All, G < 3” value [1] was 1 (33) n (%), the “Alanine aminotransferase increased, Related Both, Any G” value [1] was 1 (33) n (%) and the “Any SAE, number of subjects” value [1] was 1 n. The “Any TEAE, number of subjects” value [1] was 3 n, the “Aspartate aminotransferase increased, All, G < 3” value [1] was 1 (33) n (%) and the “Aspartate aminotransferase increased, Related Both, Any G” value [1] was 1 (33) n (%). For the same compound, the “Decreased appetite, All, G < 3” value [1] was 1 (33) n (%), the “Dehydration, All, G < 3” value [1] was 1 (33) n (%) and the “Diarrhoea, All, G < 3” value [1] was 2 (67) n (%). The “Diarrhoea, Related Both, Any G” value [1] was 1 (33) n (%), the “Dizziness, All, G < 3” value [1] was 1 (33) n (%) and the “Dyspnoea, All, G < 3” value [1] was 2 (67) n (%). The “Dyspnoea, Related Both, Any G” value [1] was 1 (33) n (%), the “Fatigue, All, G < 3” value [1] was 2 (67) n (%) and the “Fatigue, All, G ≥ 3” value [1] was 1 (33) n (%). For the same compound, the “Fatigue, Related Both, Any G” value [1] was 1 (33) n (%), the “Headache, All, G < 3” value [1] was 1 (33) n (%) and the “Hypocalcaemia, All, G < 3” value [1] was 1 (33) n (%). The “Hypocalcaemia, All, G ≥ 3” value [1] was 1 (33) n (%), the “Hypokalaemia, All, G ≥ 3” value [1] was 1 (33) n (%) and the “Nausea, All, G < 3” value [1] was 2 (67) n (%). The “Nausea, All, G ≥ 3” value [1] was 1 (33) n (%), the “Oedema peripheral, All, G < 3” value [1] was 1 (33) n (%) and the “SAE related to HBI-8000 & Nivolumab, number of subjects” value [1] was 0 n. For the same compound, the “SAE related to HBI-8000 alone, number of subjects” value [1] was 0 n, the “TEAE related to HBI-8000 & Nivolumab, number of subjects” value [1] was 3 n and the “TEAE related to HBI-8000 alone, number of subjects” value [1] was 0 n. The “TEAE resulting in discontinuation of HBI-8000 alone, number of subjects” value [1] was 2 n, the “TEAE resulting in discontinuation of both HBI-8000 and Nivo, number of subjects” value [1] was 0 n and the “Vomiting, All, G < 3” value [1] was 1 (33) n (%). For the same compound, the “Weight decreased, All, G < 3” value [1] was 1 (33) n (%), the “Alanine aminotransferase increased, All, G < 3” value [2] was 2 (29) n (%) and the “Alanine aminotransferase increased, Related Both, Any G” value [2] was 2 (29) n (%). The “Anaemia, All, G < 3” value [2] was 4 (57) n (%), the “Anaemia, All, G ≥ 3” value [2] was 1 (14) n (%) and the “Anaemia, Related Both, Any G” value [2] was 3 (43) n (%). The “Any SAE, number of subjects” value [2] was 6 n, the “Any TEAE, number of subjects” value [2] was 7 n and the “Aspartate aminotransferase increased, All, G < 3” value [2] was 2 (29) n (%). The “Aspartate aminotransferase increased, Related Both, Any G” value [2] was 2 (29) n (%), the “Atrial fibrillation, All, G < 3” value [2] was 1 (14) n (%) and the “Back pain, All, G < 3” value [2] was 4 (57) n (%). For the same compound, the “Back pain, Related Both, Any G” value [2] was 1 (14) n (%), the “Contusion, All, G < 3” value [2] was 1 (14) n (%) and the “Contusion, Related Both, Any G” value [2] was 1 (14) n (%). The “Decreased appetite, All, G < 3” value [2] was 4 (57) n (%), the “Decreased appetite, All, G ≥ 3” value [2] was 1 (14) n (%) and the “Decreased appetite, Related Both, Any G” value [2] was 3 (43) n (%). For the same compound, the “Decreased appetite, Related HBI, Any G” value [2] was 1 (14) n (%), the “Dehydration, All, G < 3” value [2] was 2 (29) n (%) and the “Dehydration, All, G ≥ 3” value [2] was 1 (14) n (%). The “Dehydration, Related Both, Any G” value [2] was 1 (14) n (%), the “Diarrhoea, All, G < 3” value [2] was 3 (43) n (%) and the “Diarrhoea, Related Both, Any G” value [2] was 3 (43) n (%). For the same compound, the “Dizziness, All, G < 3” value [2] was 2 (29) n (%), the “Dizziness, Related Both, Any G” value [2] was 1 (14) n (%) and the “Dizziness, Related HBI, Any G” value [2] was 1 (14) n (%). For the same compound, the “Dyspnoea, All, G < 3” value [2] was 4 (57) n (%), the “Dyspnoea, Related Both, Any G” value [2] was 1 (14) n (%) and the “Fall, All, G < 3” value [2] was 2 (29) n (%). For the same compound, the “Fall, Related Both, Any G” value [2] was 1 (14) n (%), the “Fatigue, All, G < 3” value [2] was 5 (71) n (%) and the “Fatigue, All, G ≥ 3” value [2] was 1 (14) n (%). For the same compound, the “Fatigue, Related Both, Any G” value [2] was 4 (57) n (%), the “Headache, All, G < 3” value [2] was 2 (29) n (%) and the “Headache, Related Both, Any G” value [2] was 1 (14) n (%). The “Hypocalcaemia, All, G < 3” value [2] was 3 (43) n (%), the “Hypocalcaemia, Related Both, Any G” value [2] was 2 (29) n (%) and the “Hypokalaemia, All, G < 3” value [2] was 2 (29) n (%). The “Hypokalaemia, All, G ≥ 3” value [2] was 1 (14) n (%), the “Hypokalaemia, Related Both, Any G” value [2] was 1 (14) n (%) and the “Hypophosphataemia, All, G < 3” value [2] was 3 (43) n (%). For the same compound, the “Hypophosphataemia, All, G ≥ 3” value [2] was 3 (43) n (%), the “Hypophosphataemia, Related Both, Any G” value [2] was 2 (29) n (%) and the “Hypophosphataemia, Related HBI, Any G” value [2] was 1 (14) n (%). For the same compound, the “Hypotension, All, G < 3” value [2] was 1 (14) n (%), the “Hypotension, All, G ≥ 3” value [2] was 2 (29) n (%) and the “Hypotension, Related Both, Any G” value [2] was 1 (14) n (%). The “Hypoxia, All, G < 3” value [2] was 1 (14) n (%), the “Hypoxia, All, G ≥ 3” value [2] was 3 (43) n (%) and the “Hypoxia, Related Both, Any G” value [2] was 1 (14) n (%). For the same compound, the “Lipase increased, All, G < 3” value [2] was 3 (43) n (%), the “Lipase increased, All, G ≥ 3” value [2] was 4 (57) n (%) and the “Lipase increased, Related Both, Any G” value [2] was 2 (29) n (%). For the same compound, the “Lymphocyte count decreased, All, G < 3” value [2] was 3 (43) n (%), the “Lymphocyte count decreased, All, G ≥ 3” value [2] was 3 (43) n (%) and the “Lymphocyte count decreased, Related Both, Any G” value [2] was 2 (29) n (%). The “Nausea, All, G < 3” value [2] was 3 (43) n (%), the “Nausea, Related HBI, Any G” value [2] was 1 (14) n (%) and the “Neutrophil count decreased, All, G < 3” value [2] was 2 (29) n (%). For the same compound, the “Neutrophil count decreased, All, G ≥ 3” value [2] was 1 (14) n (%), the “Neutrophil count decreased, Related Both, Any G” value [2] was 1 (14) n (%) and the “Neutrophil count decreased, Related HBI, Any G” value [2] was 1 (14) n (%). The “Non-cardiac chest pain, All, G < 3” value [2] was 2 (29) n (%), the “Oedema peripheral, All, G < 3” value [2] was 4 (57) n (%) and the “Oedema peripheral, All, G ≥ 3” value [2] was 1 (14) n (%). The “Oedema peripheral, Related Both, Any G” value [2] was 1 (14) n (%), the “Oedema peripheral, Related HBI, Any G” value [2] was 1 (14) n (%) and the “Platelet count decreased, All, G < 3” value [2] was 4 (57) n (%). For the same compound, the “Platelet count decreased, Related Both, Any G” value [2] was 3 (43) n (%), the “Platelet count decreased, Related HBI, Any G” value [2] was 1 (14) n (%) and the “Pleural effusion, All, G < 3” value [2] was 3 (43) n (%). For the same compound, the “Pleural effusion, Related Both, Any G” value [2] was 1 (14) n (%), the “SAE related to HBI-8000 & Nivolumab, number of subjects” value [2] was 0 n and the “SAE related to HBI-8000 alone, number of subjects” value [2] was 0 n. The “TEAE related to HBI-8000 & Nivolumab, number of subjects” value [2] was 5 n, the “TEAE related to HBI-8000 alone, number of subjects” value [2] was 4 n and the “TEAE resulting in discontinuation of HBI-8000 alone, number of subjects” value [2] was 1 n. For the same compound, the “TEAE resulting in discontinuation of both HBI-8000 and Nivo, number of subjects” value [2] was 1 n, the “Vomiting, All, G < 3” value [2] was 1 (14) n (%) and the “Vomiting, Related Both, Any G” value [2] was 1 (14) n (%). The “Weight decreased, All, G < 3” value [2] was 5 (71) n (%), the “Weight decreased, Related Both, Any G” value [2] was 3 (43) n (%) and the “White blood cell count decreased, All, G < 3” value [2] was 2 (29) n (%). For the same compound, the “White blood cell count decreased, All, G ≥ 3” value [2] was 1 (14) n (%), the “White blood cell count decreased, Related Both, Any G” value [2] was 2 (29) n (%) and the “White blood cell count decreased, Related HBI, Any G” value [2] was 2 (29) n (%). The “Alanine aminotransferase increased, All, G < 3” value [3] was 1 (14) n (%), the “Alanine aminotransferase increased, Related Both, Any G” value [3] was 1 (14) n (%) and the “Anaemia, All, G < 3” value [3] was 4 (57) n (%). For the same compound, the “Anaemia, All, G ≥ 3” value [3] was 1 (14) n (%), the “Anaemia, Related Both, Any G” value [3] was 1 (14) n (%) and the “Anaemia, Related HBI, Any G” value [3] was 2 (29) n (%).
